Assay results published in US20250235501A1, “Methods and Compositions for Treating or Preventing Neurological Injury or Neurological Disorders” (University of Connecticut, priority 2024, published 2025).

Key:
[1] = test system: cultured cortical neurons; test: OGD-induced Ca2+ overload and neuronal death, Fura-2 ratio Ca2+ imaging; format: cell-based, mouse; conditions: for OGD-mediated neuronal death: WT neurons, 10 μM overnight
Procedure: FIGS. 6C-6E show the effects of TAT-EE3 on Ca2+ overload and neuronal death caused by OGD. Cultured WT and gM2KO cortical neurons were treated with 10 μM TAT-SC and TAT-EE3 for overnight before experiments.
(§1) Mice pups at P0 were euthanized based on animal protocol. Whole brain was dissected out immediately and immersed in ice-cold Hank's Balanced Salt Solution (HBSS). Meninges were removed thoroughly, and tissue of different brain areas was taken based on purposes. Brain tissue was cut into small pieces and digested with 0.25% trypsin (Thermal Fisher Scientific, 15090-046) in HBSS at 37° C. for 20 min. Digestion solution was quickly removed, and tissue pellets are washed with Neurobasal® Medium (Thermal Fisher Scientific, 21103-049) for 3 times. Cells were resuspended with appropriate amount of Neurobasal® Medium supplemented with 2% B27® supplement (Thermal Fisher Scientific, 17504-044), 3% horse serum (Thermal Fisher Scientific, 16050114), 0.25% L-glutamine (Thermal Fisher Scientific, 25030-081) and 1% penicillin/streptomycin (Thermal Fisher Scientific, 15140-122). Isolated cells were counted and plated on coverslips pre-coated with poly-L-lysine (Sigma-Aldrich, P4707) at a density about 500×10^3 cells/cm2 for OGD and H2O2 treatment, and 100×10^3 cells/cm2 for current recording. Cytosine arabinoside (Sigma-Aldrich, C1768) was added to maintain a concentration at 1 μM to inhibit the proliferation of non-neuronal cells. 24 h after plating, culture medium was changed to Neurobasal® Medium supplemented with 2% B27® supplement, 0.25% L-glutamine and 1% penicillin/streptomycin. The concentration of Cytosine arabinoside (araC) was increased to 2 μM. Medium was changed every 3 days. OGD and H2O2 treatment was conducted at 7th day of culture, and current recording was conducted at 7th, 10th and 14th day of culture.
Oxygen-glucose deprivation (OGD) was achieved by replace the glucose in aCSF with sucrose, and 95% N2 and 5% CO2 was used to equilibrate sucrose-aCSF to displace oxygen. This condition typically yielded a pO2 of <5 mm Hg in the imaging chamber (Thompson, R. J., Zhou, N., and Mac Vicar, B. A. (2006). Ischemia opens neuronal gap junction hemichannels. Science 312, 924-27). At least 10 min was allowed for neurons to adapt to the change from culture medium to aCSF before OGD was applied.
Changes of intracellular Ca2+ was measured using ratio Ca2+ imaging as we describe previously (Du, J., Xie, J., Zhang, Z., Tsujikawa, H., Fusco, D., Silverman, D., Liang, B., and Yue, L. (2010). TRPM7-mediated Ca2+ signals confer fibrogenesis in human atrial fibrillation. Circulation research 106, 992-1003). In brief, Fura-2 AM (Thermal Fisher Scientific, F1221) was dissolved in DMSO to make a stock concentration at 1 mM. Pre-warmed Neurobasal® Medium (Thermal Fisher Scientific, 21103-049) was used to dilute Fura-2 AM to a working concentration at 2.5 μM, and 0.02% Pluronic™ F-127 (Thermal Fisher Scientific, P3000MP) was added to facilitate loading of Fura-2 AM. Cells plated on 25 mm glass coverslips were washed using pre-warmed PBS for 3 times, and then incubated with 2 ml of Fura-2 AM working solution for 30˜45 min at 37° C. […]
Ca2+ influx was measured by perfusing the cells with Tyrode's solution for transfected HEK293T cells or aCSF for neurons under different conditions. […] Fluorescence intensities at 510 nm with 340 nm and 380 nm excitation were collected at a rate of 1 Hz using CoolSNAP HQ2 (Photometrics) and data were analyzed using NIS-Elements (Nikon). […]

NMDARs = test: NMDAR currents in cultured cortical neurons of WT and TRPM2-KO mice (whole cell recording); format: cell-based, mouse
Procedure: FIGS. 4O and 4P show the effects of stausporine on NMDAR currents recorded from cortical neurons cultured for 14 days. FIG. 4O show representative NMDAR currents elicited at −80 mV by 10 μM NMDA in WT and TRPM2-KO (gM2KO) neurons treated with or without Stausporine at 1 μM for overnight. FIG. 4P show the average current amplitude (ns, p>0.05; **, p<0.01; ANOVA, Bonferroni's test; mean±SEM, n=11, 10, 10, 12 neurons from 2 mice respectively).
FIG. 4S show representative NMDAR currents elicited by NMDA in WT and TRPM2-KO neurons treated with or without endosidin2 at 1 μM for overnight.
FIGS. 5I-5K show the effects of TAT-EE3 on PKC induced changes of NMDAR currents recorded in cortical neurons of WT and TRPM2-KO. Neurons were incubated with 10 μM TAT-SC or TAT-EE3 for overnight before current recording. FIG. 5I show representative NMDAR currents elicited by 10 μM NMDA at −80 mV before and after PMA (1 μM) perfusion for 20 s. TAT-SC or TAT-EE3 10 μM was included in the pipette solution for current recording.
FIGS. 6A and 6B show the effects of TAT-EE3 on NMDAR currents in WT and gM2KO cortical neurons cultured for 14 days. […] TAT-SC or TAT-EE3 10 μM was included in the pipette solution during current recording.
as §1
Whole cell currents were recorded using an Axopatch 200B amplifier. Data were digitized at 10 or 20 kHz and digitally filtered offline at 1 kHz. Patch electrodes were pulled from borosilicate glass and fire-polished to a resistance of ˜3 MΩ when filled with internal solutions. Series resistance (Rs) was compensated up to 90% to reduce series resistance errors to <5 mV. Cells in which Rs was >10 MΩ were discarded (Du, J., Xie, J., and Yue, L. (2009). Modulation of TRPM2 by acidic pH and the underlying mechanisms for pH sensitivity. J Gen Physiol 134, 471-88).
For heterologous expression, transfected HEK-293 cells were identified by GFP fluorescence. TRPM2 current recording in transfected HEK-293T cells was performed as we previously reported (Du, J., Xie, J., and Yue, L. (2009). Intracellular calcium activates TRPM2 and its alternative spliced isoforms. Proceedings of the National Academy of Sciences 107, 7239-44; Du, J., Xie, J., and Yue, L. (2009). Modulation of TRPM2 by acidic pH and the underlying mechanisms for pH sensitivity. J Gen Physiol 134, 471-88). […]

[2] = pretreatment 10 μM overnight, F340/380
[3] = WT neurons incubated with 10 μM peptide overnight, PMA 1 μM 20 s

## TAT-EE3: membrane permeable disrupting peptide, sequence YGRKKRRQRRREEDTDSSEEMLALAEE (SEQ ID NO: 4)
[1]; 30 min OGD, WT without TAT-EE3 10.6%
  OGD-mediated neuronal death: 3.6%
[1]; 60 min OGD, WT without TAT-EE3 47.6%
  OGD-mediated neuronal death: 9.9%
[1]; 90 min OGD, WT without TAT-EE3 70.5%
  OGD-mediated neuronal death: 45.2%
[1]; [2]
  OGD-induced changes of intracellular Ca2+ in TRPM2-KO neurons: not in TRPM2-KO neurons
  OGD-induced changes of intracellular Ca2+ in WT neurons: significantly reduced
NMDARs; 10 μM peptide overnight and in pipette, neurons cultured 14 days
  NMDAR currents in neurons from TRPM2-KO mice: not from TRPM2-KO mice
NMDARs; 10 μM peptide overnight and in pipette, neurons cultured 14 days, 10 μM NMDA, -80 mV
  NMDAR currents in neurons from WT mice: efficiently reduced
NMDARs; [3]
  NMDAR current amplitude before and after PMA perfusion: much smaller
  increase of NMDAR current amplitude induced by PMA: significantly smaller than that in neurons incubated with TAT-SC
NMDARs; neurons from TRPM2-KO mice, 10 μM peptide overnight
  PMA-induced changes of NMDAR currents, TAT-SC vs TAT-EE3: no difference
